Results: the supplement of paper PMC10307832

How the values were obtained:
Assay in all cases: relative viability (nuclei count vs DMSO), 5 days (fraction); higher = more cells survive
[1] = compound: CN[C@@H]1C[C@H]2O[C@@](C)([C@@H]1OC)n1c3ccccc3c3c4c(c5c6ccccc6n2c5c31)C(=O)NC4 [Staurosporine] + O=C(CCCCCCC(=O)Nc1ccccc1)NO [Vorinostat] (partner 1 µM)
Method in brief: (§1)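 Values are medians from duplicate plates. Each reflects relative viability, defined as the nuclei count of treated wells over that of vehicle wells. Lung cancer cell lines in 1536-well plates were pin-tool dosed one day after seeding with one drug alone or with a fixed anchor-drug dose plus five library-drug doses (not always all listed) in √10 steps, then fixed, stained and imaged at 4× after 5 days.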

[2] = compound: CN[C@@H]1C[C@H]2O[C@@](C)([C@@H]1OC)n1c3ccccc3c3c4c(c5c6ccccc6n2c5c31)C(=O)NC4 [Staurosporine] + Nc1ncn([C@H]2C[C@H](O)[C@@H](CO)O2)c(=O)n1 [Decitabine] (partner 2 µM)
Method in brief: as §1

[3] = compound: O=c1[nH]cc(F)c(=O)[nH]1 [5-Fluorouracil] + O=C(CCCCCCC(=O)Nc1ccccc1)NO [Vorinostat] (partner 1 µM)
Method in brief: as §1

[4] = compound: CN[C@@H]1C[C@H]2O[C@@](C)([C@@H]1OC)n1c3ccccc3c3c4c(c5c6ccccc6n2c5c31)C(=O)NC4 [Staurosporine] + C[C@@H](Oc1cc(-c2cnn(C3CCNCC3)c2)cnc1N)c1c(Cl)ccc(F)c1Cl [Crizotinib] (partner 1 µM)
Method in brief: as §1

Cell Line | relative viability ([1]; first compound 0.005 µM) | relative viability ([1]; first compound 0.01581 µM) | relative viability ([1]; first compound 0.05 µM) | relative viability ([1]; first compound 0.1581 µM) | relative viability ([1]; first compound 0.5 µM) | relative viability ([2]; first compound 0.005 µM) | relative viability ([2]; first compound 0.01581 µM) | relative viability ([2]; first compound 0.05 µM) | relative viability ([2]; first compound 0.1581 µM) | relative viability ([2]; first compound 0.5 µM) | relative viability ([3]; first compound 0.02 µM) | relative viability ([3]; first compound 0.2 µM) | relative viability ([3]; first compound 0.6325 µM) | relative viability ([3]; first compound 2 µM) | relative viability ([4]; first compound 0.005 µM) | relative viability ([4]; first compound 0.01581 µM) | relative viability ([4]; first compound 0.05 µM) | relative viability ([4]; first compound 0.1581 µM) | relative viability ([4]; first compound 0.5 µM)
A-427 | 0.572 | 0.333 | 0.43 | 0.161 | 0.152 | 0.573 | 0.448 | 0.282 | 0.18 | 0.149 | 0.812 | 0.921 | 0.783 | 0.419 | 0.841 | 0.582 | 0.236 | 0.126 | 0.122
PC-14 | 0.267 | 0.116 | 0.0757 | 0.047 | 0.0287 | 0.22 | 0.137 | 0.0771 | 0.0491 | 0.0544 | 0.82 | 0.635 | 0.623 | 0.355 | 0.683 | 0.714 | 0.141 | 0.0852 | 0.0777
LCLC-97TM1 | 0.334 | 0.0752 | 0.205 | 0.113 | 0.0631 | 0.257 | 0.198 | 0.217 | 0.217 | 0.223 | 0.575 | 1.07 | 0.857 | 0.272 | 0.277 | 0.24 | 0.234 | 0.296 | 0.257
BEN | 0.879 | 0.885 | 0.506 | 0.319 | 0.264 | 0.882 | 0.621 | 0.486 | 0.279 | 0.311 | 0.566 | 0.641 | 0.579 | 0.633 | 1.22 | 0.754 | 0.473 | 0.379 | 0.266
NCI-H2085 | 0.58 | 0.296 | 0.407 | 0.229 | 0.183 | 0.527 | 0.4 | 0.463 | 0.364 | 0.352 | 0.754 | 0.96 | 0.728 | 0.651 | 0.65 | 0.516 | 0.465 | 0.264 | 0.237
LC-2-ad | 0.635 | 0.158 | 0.217 | 0.13 | 0.0772 | 0.765 | 0.695 | 0.623 | 0.167 | 0.166 | 0.697 | 0.589 | 0.42 | 0.256 | 0.442 | 0.368 | 0.266 | 0.167 | 0.116
ABC-1 | 0.667 | 0.411 | 0.454 | 0.147 | 0.117 | 0.578 | 0.563 | 0.353 | 0.259 | 0.157 | 0.982 | 1.24 | 0.963 | 0.834 | 0.43 | 0.285 | 0.149 | 0.0998 | 0.0958
NCI-H661 | 0.854 | 0.695 | 0.523 | 0.239 | 0.179 | 0.555 | 0.484 | 0.436 | 0.267 | 0.186 | 0.835 | 0.818 | 0.786 | 0.809 | 1.03 | 0.9 | 0.81 | 0.501 | 0.415
EPLC-272H | 0.216 | 0.141 | 0.0826 | 0.0904 | 0.0549 | 0.367 | 0.193 | 0.203 | 0.102 | 0.0597 | 0.621 | 0.401 | 0.279 | 0.241 | 0.864 | 0.559 | 0.459 | 0.155 | 0.124
NCI-H1437 | 0.577 | 0.469 | 0.302 | 0.235 | 0.169 | 0.639 | 0.442 | 0.439 | 0.248 | 0.15 | 0.441 | 0.301 | 0.252 | 0.253 | 0.924 | 0.702 | – | 0.545 | 0.449
EKVX | 0.597 | 0.236 | 0.19 | 0.248 | 0.181 | 0.31 | 0.271 | 0.202 | 0.191 | 0.18 | 0.69 | 0.328 | – | – | 0.666 | 0.429 | 0.329 | 0.253 | 0.146
NCI-H1651 | 0.609 | 0.537 | 0.402 | 0.122 | 0.116 | 0.623 | 0.509 | 0.324 | 0.146 | 0.131 | 0.529 | 0.531 | 0.246 | 0.245 | 0.945 | 0.765 | 0.575 | 0.549 | 0.385
HCC-15 | 0.811 | – | 0.485 | 0.28 | 0.213 | 0.436 | – | 0.274 | 0.134 | 0.106 | 0.952 | 0.912 | 0.554 | 0.327 | 0.795 | – | 0.527 | 0.307 | 0.267
LCLC-103H | 0.545 | 0.16 | 0.251 | 0.211 | 0.198 | 0.753 | 0.484 | 0.34 | 0.299 | 0.278 | 0.808 | 0.829 | 0.673 | 0.469 | 1.1 | 0.741 | 0.564 | 0.318 | 0.258
NCI-H2347 | 0.409 | 0.378 | 0.274 | 0.264 | 0.228 | 0.527 | 0.406 | 0.384 | 0.309 | 0.323 | 0.64 | 0.41 | 0.41 | 0.431 | 0.559 | 0.353 | 0.364 | 0.415 | 0.449
NCI-H1915 | 0.452 | 0.178 | 0.148 | 0.0885 | 0.0702 | 0.268 | 0.227 | 0.186 | 0.126 | 0.0975 | 0.404 | 0.493 | 0.587 | 0.407 | 0.903 | – | 0.362 | 0.294 | 0.268
NCI-H650 | 0.32 | 0.162 | 0.234 | 0.181 | 0.151 | 0.343 | 0.411 | 0.258 | 0.235 | 0.188 | 0.414 | 0.309 | 0.264 | 0.251 | 0.443 | 0.333 | 0.271 | 0.196 | 0.151
